# According to patent US10550114B2, “Kinase inhibitors and their use in cancer therapy” (TECHNISCHE UNIVERSITÄT DORTMUND, priority 2015, dated 2020):
# Read-outs that look alike come from different tables or passages of the source.
# How the values were obtained:
# [1] = molecular target: activated full-length Akt1 (Homo sapiens (Human), UniProt P31749); assay: Kinetic parameters (Ki, kinact), ECHO520 dilution series; format: biochemical; conditions: for kinact/KI: ECHO520
# Description: (§1) Time-dependent IC50 measurements were performed with activated full-length Akt1 as described under “Biochemical assays”. Briefly, IC50 values were determined for twelve different incubation times and afterwards plotted versus accordingly. Data was analyzed according to literature procedure as described in B. F. Krippendorff, R. Neuhaus, P. Lienau, A. Reichel, W. Huisinga, J. Biomol. Screen.
# (§2) Calculated IC50 values were plotted versus the incubation time and data was fit as described in the literature to determine kinact and Ki as described above.
# wild-type Akt1 [2] = molecular target: T1, wild-type Akt1 (Homo sapiens (Human), UniProt P31749); assay: Activity-based assay, ECHO520 dilution series; format: biochemical
# Description: (§5) The potential influence of the reactive alkenyl group functioning as a Michael acceptor was further evaluated and the inhibitory potencies further assessed in activity-based studies utilizing activated full-length wtAkt1 (Millipore).
# Akt1_E17K = Akt1_E17K (Homo sapiens (Human), UniProt P31749, E17K); assay: Activity-based assay, ECHO520 dilution series; format: biochemical; conditions: mutant Akt1_E17K
# Description: as §5
# [3] = molecular target: T2, activated full-length wtAkt1 (Homo sapiens (Human), UniProt P31749); assay: Time-dependent activity-based screening; format: biochemical; conditions: incubation 10, 30, 60 or 300 minutes
# [4] = molecular target: fluorescently labeled full-length Akt1 (Homo sapiens (Human), UniProt P31749, C296S/C310S/C344S/E49C); assay: iFLiK binding analysis; conditions: fluorophore-labeled Akt1 200 nM; n.r. = no response up to 100 μM
# Description: Afterwards they were cloned into pREN4427-HIS-DEST vector and introduced into a baculovirus using the BacMagic Kit (Calbiochem) in Sf9 cells (Invitrogen). Protein expression, purification and labeling was performed according to standard protocols.
# The final concentration of fluorophore-labeled recombinant Akt1 was 200 nM.
# [5] = molecular target: T2, activated full-length wtAkt1; assay: Activity-based (HTRF) assay, manual dilution series; conditions: for higher concentration required for half-maximum inhibition of Akt1 versus alkenyl counterpart: 1b vs 1a, 2b vs 2a
# Description: OriginPro 9.1G software (OriginLab Corporation, Northhampton, Mass.) was used for data analysis and data was fit to a sigmoidal dose-response model using the following four-parameter logistic equation:
# as §5
# Full-length wtAkt1 = Full-length wtAkt1 (Homo sapiens (Human), UniProt P31749); assay: ESI-MS/MS analysis after tryptic digest; format: binding; conditions: 2-fold molar excess
# Description: Protoc. […] 3 μL of sample were loaded onto a pre-column cartridge and desalted for 5 min using 0.1% TFA in water as eluent at a flow rate of 30 μL/min. The samples were back-flushed from the pre-column to the nano-HPLC column during the whole analysis. […] During the complete gradient cycle, a typical TOP10 shot-gun proteomics method for the MS and MS/MS analysis was used. […] Biotechnol.
# [6] = molecular target: T2, activated full-length wtAkt1; assay: Kinetic characterization by determination of kinact/Ki (time-dependent IC50); format: biochemical; conditions: incubation 1 to 120 minutes; manual dilution series
# Description: as §1, §2
# wild-type Akt1 [7] = molecular target: T1, wild-type Akt1; assay: ESI-MS of compound-treated Akt1; format: binding; conditions: 2 molar equivalents, thirty minutes on ice, vs DMSO control
# Description: Purified full-length wtAkt1 was thawed under cold water and diluted to a final concentration of 1 mg/mL in storage buffer (50 mM HEPES, 200 mM NaCl, 10% Glycerol, pH 7.4). […] Following incubation for thirty minutes on ice, the samples were analyzed by ESI-MS using an Agilent 1100 Series HPLC System connected to a ThermoFinnigan LTQ Linear Ion Trap mass spectrometer. […] During the complete experiment, a mass range of 700 to 2000 m/z was scanned and raw data was deconvoluted and analyzed with MagTran and mMass (Version 5.5.0) software.
# PC3 cells = assay: Western blot in prostate cancer cells; format: cell-based, human; conditions: PC3, 24 hours
# Description: (§3) Human ductal breast carcinoma cells (BT474) and human prostate adenocarcinoma cells (PC-3) were purchased from the ATCC (Bethesda, Md., USA) and were cultured in RPMI 1640 medium (Life Technologies, Germany) supplemented with 10% (v/v) fetal calf serum (FCS; Biochrom, Berlin, Germany) and maintained in a humidified incubator at 37° C. and 5% CO2 (C200, Labotect Incubator, Göttingen, Germany).
# (§4) BT474 and PC-3 cells were lysed for 10 min at 95° C. in 62.5 mM Tris-HCl (pH 6.8), 2% (w/v) SDS, 10% (v/v) glycerol, 80 mM DTT, and 0.01% (w/v) bromophenol blue (350.000 cells per 100 μL lysis buffer). Proteins were separated by SDS-PAGE and blotted onto PVDF-membranes (Roth, Karlsruhe, Germany) using Fastblot according to manufacturer's manual (B44, Biometra, Goettingen, Germany). After blocking with 5% (w/v) nonfat dry milk membranes were incubated at 4° C. over night with the respective primary antibody (1:20.000 for β-actin, 1:1000 for all other antibodies). After washing, the membranes were incubated for 1 h at room temperature with the secondary antibody (anti-IgG-HRP 1:2000, CST, Frankfurt, Germany) washed again and monitored by chemiluminescence imaging using FUSION Solo (peqlab, Erlangen, Germany) and appropriate ECL Prime Western blotting detection reagent according to the manufacturer's protocol (GE Healthcare/Amersham-Biosciences, Freiburg, Germany). […]
# MAP4K5 = MAP4K5 (Homo sapiens (Human), UniProt Q9Y4K4); assay: Z'LYTE kinase assay, SelectScreen panel; format: biochemical; conditions: 1 μM compound, apparent ATP KM
# [8] = Pharmacokinetic profiling in mice (plasma, LC-MS/MS); conditions: for bioavailability: CD1, mouse, in vivo
# Description: EDTA was added to plasma in order to prevent blood from coagulation. The compound concentrations in the particular plasma samples were determined by LC-MS/MS, as follows:
# Samples and blanks were prepared by adding 2.5 μL blank DMSO and 80 μL of ice-cold acetonitrile containing the internal standard (Griseofulvin, 1 μM) to 20 μl plasma followed by centrifugation at 13000 rpm (4° C.) for 10 min. 65 μL of the supernatant were diluted with 65 μL of LC-MS grade water. Samples were filtered (Millipore MSRLN0450 hydrophil) and subjected to LC-MS measurement. […] 2.5 μL of the corresponding DMSO stock solution were added to 20 μL of blank plasma followed by the addition of 80 μL of ice-cold acetonitrile containing the internal-standard. The samples were centrifuged for 10 min and 4° C. at 13000 rpm. 65 μL of the supernatant were diluted with 65 μL of LC-MS grade water and subjected to LC-MS analysis. A set of 3 different QCs (n=3) was prepared by adding of 2.5 μL DMSO stock solution (5, 0.5 and 0.05 μM) to 20 μL of plasma. Samples were subsequently handled as described above. All samples were analyzed using a Shimadzu LC20ADXR Solvent Delivery Unit, a Shimadzu SIL30ACMP autosampler and a ABSciex Qtrap5500 LC-MS/MS system. Therefore, 2 μL of sample were injected and separated using an Agilent Poroshell C18, 2.7 μm column (2.1 mm×50 mm) at 60° C. starting at 5% of solvent B for 0.3 min followed by a gradient up to 100% of solvent B over 0.6 min (flow rate 1 mL/min) with 0.1% formic acid in water as solvent A and 0.1% formic acid in acetonitrile as solvent B. Data evaluation was performed using Analyst 1.6.2 Software (Sciex).
# BT474 cells = assay: Western blot in breast cancer cells; format: cell-based, human; conditions: BT474, 24 hours
# Description: as §3, §4
# [9] = Maximum tolerated dose in mice; conditions: RjOrl:SWISS, mouse, in vivo, ip, PBS/PEG200 (60:40)
# GIST-T1 cells = assay: Western blot in gastrointestinal stromal tumor cells; format: cell-based, human; conditions: GIST-T1, 24 hours
# Description: For GIST-T1 cells protein lysates were prepared from cell line monolayers according to standard protocols as described in A. Duensing, F. Medeiros, B. McConarty, N. E. Joseph, D. Panigrahy, S. Singer, C. […] Protein concentrations were determined with the Bio-Rad Protein Assay (Bio-Rad Laboratories, Hercules, Calif.). Electrophoresis and immunoblotting were carried out as described in B. P. Rubin, S. Singer, C. Tsao, A. Duensing, M. L. Lux, R. Ruiz, M. K. Hibbard, C. J. Chen, S. Xiao, D. A. Tuveson, G. D. Demetri, C.
# Controls were treated with dimethyl sulfoxide (DMSO).
# [10] = activated full-length wtAkt1, 120 pM, manual dilution series
# Sequence of fluorescently labeled full-length Akt1 (P31749 whole entry E49C/C296S/C310S/C344S): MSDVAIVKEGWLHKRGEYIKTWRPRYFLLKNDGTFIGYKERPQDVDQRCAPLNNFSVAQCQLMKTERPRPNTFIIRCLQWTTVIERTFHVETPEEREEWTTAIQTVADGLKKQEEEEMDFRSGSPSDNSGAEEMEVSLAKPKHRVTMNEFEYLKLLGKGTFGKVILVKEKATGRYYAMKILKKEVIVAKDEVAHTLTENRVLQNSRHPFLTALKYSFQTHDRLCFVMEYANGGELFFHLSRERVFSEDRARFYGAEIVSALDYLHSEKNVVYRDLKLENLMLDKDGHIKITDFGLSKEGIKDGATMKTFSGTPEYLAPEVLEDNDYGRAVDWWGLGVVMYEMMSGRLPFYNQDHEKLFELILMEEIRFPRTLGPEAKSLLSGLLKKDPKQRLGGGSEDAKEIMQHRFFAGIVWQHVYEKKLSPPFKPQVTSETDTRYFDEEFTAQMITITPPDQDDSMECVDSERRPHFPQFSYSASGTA
# T2 sequence (P31749 whole entry): as the sequence (P31749 whole entry E49C/C296S/C310S/C344S) above, with C49E, S296C, S310C, S344C counted along it
# T1 sequence (P31749 whole entry): as the sequence (P31749 whole entry E49C/C296S/C310S/C344S) above, with C49E, S296C, S310C, S344C counted along it
# Sequence of activated full-length Akt1 (P31749 whole entry): as the sequence (P31749 whole entry E49C/C296S/C310S/C344S) above, with C49E, S296C, S310C, S344C counted along it
# Sequence of Akt1_E17K (P31749 whole entry E17K): as the sequence (P31749 whole entry E49C/C296S/C310S/C344S) above, with E17K, C49E, S296C, S310C, S344C counted along it
# Sequence of Full-length wtAkt1 (P31749 whole entry): as the sequence (P31749 whole entry E49C/C296S/C310S/C344S) above, with C49E, S296C, S310C, S344C counted along it
# Sequence of MAP4K5 (Q9Y4K4 whole entry): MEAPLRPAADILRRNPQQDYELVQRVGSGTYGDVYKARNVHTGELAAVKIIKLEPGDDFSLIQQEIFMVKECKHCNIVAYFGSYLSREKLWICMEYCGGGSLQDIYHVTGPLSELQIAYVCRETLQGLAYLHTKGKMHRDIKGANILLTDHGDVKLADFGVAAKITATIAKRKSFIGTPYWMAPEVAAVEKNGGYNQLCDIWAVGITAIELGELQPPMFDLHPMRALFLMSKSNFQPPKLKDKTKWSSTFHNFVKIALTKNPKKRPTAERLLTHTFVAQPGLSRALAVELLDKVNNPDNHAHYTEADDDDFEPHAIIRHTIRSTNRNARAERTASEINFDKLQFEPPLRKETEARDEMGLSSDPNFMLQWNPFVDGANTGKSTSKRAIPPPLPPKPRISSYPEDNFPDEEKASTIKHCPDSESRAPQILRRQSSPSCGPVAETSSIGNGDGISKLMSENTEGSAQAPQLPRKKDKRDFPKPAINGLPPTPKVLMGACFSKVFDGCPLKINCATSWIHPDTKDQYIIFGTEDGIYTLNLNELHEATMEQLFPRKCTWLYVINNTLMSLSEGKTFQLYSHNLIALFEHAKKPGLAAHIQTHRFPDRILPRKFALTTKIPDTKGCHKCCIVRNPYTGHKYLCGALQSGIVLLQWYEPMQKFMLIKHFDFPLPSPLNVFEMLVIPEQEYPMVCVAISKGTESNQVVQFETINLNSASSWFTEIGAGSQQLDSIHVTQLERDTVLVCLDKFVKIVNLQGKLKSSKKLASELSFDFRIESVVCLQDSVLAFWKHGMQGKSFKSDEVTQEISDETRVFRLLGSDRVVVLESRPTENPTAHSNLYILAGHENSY
structure (smiles),measurement,setting,value
CN(C)C/C=C/C(=O)Nc1ccc2[nH]c(=O)n(C3CCN(Cc4ccc(-c5nc6cc[nH]c(=O)c6cc5-c5ccccc5)cc4)CC3)c2c1 [Compound 36],kinact,[1],0.00102 s⁻¹
same,kinact/KI,[1],51000 ± 10000 M⁻¹ s⁻¹
C=CC(=O)Nc1ccc(C(=O)NC2CCN(Cc3ccc(-c4nc5cc[nH]c(=O)c5cc4-c4ccccc4)cc3)CC2)c(F)c1 [Compound 47],IC50,wild-type Akt1 [2],21.3 ± 1.8 nM
same,IC50,Akt1_E17K,2900 ± 137 nM
C=CC(=O)Nc1ccc(C(=O)NC2CCN(Cc3ccc(-c4nc5cc[nH]c(=O)c5cc4-c4ccccc4)cc3)CC2)s1 [Compound 48],IC50,wild-type Akt1 [2],8.1 ± 0.4 nM
same,IC50,Akt1_E17K,397 ± 172 nM
"CCC(=O)Nc1ccc2[nH]c(=O)n(C3CCN(Cc4ccc(-c5nc6cc[nH]c(=O)c6cc5-c5ccccc5)cc4)CC3)c2c1 [Compound 1b, N-(2-OXO-3-(1-(4-(5-OXO-3-PHENYL-5,6-DIHYDRO-1,6-NAPHTHYRIDIN-2-YL)BENZYL)PIPERIDIN-4-YL)-2,3-DIHYDRO-1H-BENZO[D]IMIDAZOL-5-YL) PROPIONAMIDE]",time dependence of dose-response curves,[3],No differences were observed
same,Kd,[4],62 ± 12 nM
same,higher concentration required for half-maximum inhibition of Akt1 versus alkenyl counterpart,[5],10 fold
same,IC50,[5]; [10],7.5 ± 2 nM
"NC1(c2ccc(-c3nc4ccn5c(=O)[nH]nc5c4cc3-c3ccccc3)cc2)CCC1 [MK-2206, reference compound]",time dependence of dose-response curves,[3],No differences were observed
"C=CC(=O)Nc1cccc(-c2cn(C3CCN(Cc4ccc(-c5nc6ccccn6c5-c5ccccc5)cc4)CC3)nn2)c1 [Compound 2a, N-[3-(1-{1-[4-(3-Phenylimidazo[1,2-a]pyridin-2-yl)benzyl]piperidin-4-yl}-1H-1,2,3-triazol-4-yl)phenyl]acrylamide]",covalently modified residues,Full-length wtAkt1,covalently bind to Akt1 at Cys296 and Cys310
same,Kd,[4],795 ± 176 nM
same,IC50,[5],372 ± 48 nM
same,IC50,[5]; [10],372 ± 48 nM
same,kinact/KI,[6],2300 ± 300 M⁻¹ s⁻¹
same,mass increase of Akt1 (single labeled),wild-type Akt1 [7],572 Da
N#C/C(=C\C1CC1)C(=O)Nc1cccc(C(=O)NC2CCN(Cc3ccc(-c4nc5cc[nH]c(=O)c5cc4-c4ccccc4)cc3)CC2)c1 [Compound 45],kinact,[1],0.00182 s⁻¹
same,kinact/KI,[1],41000 ± 9000 M⁻¹ s⁻¹
"CCC(=O)Nc1cccc(-c2cn(C3CCN(Cc4ccc(-c5nc6ccccn6c5-c5ccccc5)cc4)CC3)nn2)c1 [Compound 2b, N-[3-(1-{1-[4-(3-Phenylimidazo[1,2-a]pyridin-2-yl)benzyl]piperidin-4-yl}-1H-1,2,3-triazol-4-yl)phenyl]propionamide]",Kd,[4],797 ± 180 nM
same,IC50,[5],992 ± 328 nM
same,higher concentration required for half-maximum inhibition of Akt1 versus alkenyl counterpart,[5],4 fold
"C=CC(=O)Nc1ccc2[nH]c(=O)n(C3CCN(Cc4ccc(-c5nc6cc[nH]c(=O)c6cc5-c5ccccc5)cc4)CC3)c2c1 [Compound 1a, N-(2-oxo-3-(1-(4-(5-oxo-3-phenyl-5,6-dihydro-1,6-naphthyridin-2-yl)benzyl)piperidin-4-yl)-2,3-dihydro-1H-benzo[d]imidazol-5-yl) acrylamide]",phosphorylation of Akt1 substrate GSK3β,PC3 cells,decreased phosphorylation
same,pAkt1 (Thr308 and Ser473) level,PC3 cells; 0.01-10 μM,dose-dependent decreases of pAkt1
same,inhibition at 1 µM,MAP4K5,37%
same,bioavailability,"[8]; ip, 20 mg/kg",47.7%
same,bioavailability,"[8]; po, 20 mg/kg",10.8%
same,maximum plasma concentration,"[8]; i.p., 20 mg/kg",1.15 µM
same,time of maximum plasma concentration,"[8]; i.p., 20 mg/kg",45 min
same,maximum plasma concentration,"[8]; i.v., 2 mg/kg",1.05 µM
same,time of maximum plasma concentration,"[8]; i.v., 2 mg/kg",immediately after injection
same,maximum plasma concentration,"[8]; p.o., 20 mg/kg",0.62 µM
same,time of maximum plasma concentration,"[8]; p.o., 20 mg/kg",15 min
same,phosphorylation of Akt1 substrate GSK3β,BT474 cells,decreased phosphorylation
same,pAkt1 (Thr308 and Ser473) level,BT474 cells; 0.01-10 μM,dose-dependent decreases of pAkt1
same,MTD,[9],20 mg/kg
same,phosphorylation of downstream targets S6 and 4EBP1,GIST-T1 cells,decreasing phosphorylation
same,cellular pAkt1 levels,GIST-T1 cells; 0.001-0.1 μM,reduces cellular pAkt1 levels at low nanomolar concentrations
CCC(=O)Nc1cccc(C(=O)NC2CCN(Cc3ccc(-c4nc5cc[nH]c(=O)c5cc4-c4ccccc4)cc3)CC2)c1 [Compound 27],Kd,[4],79 ± 21 nM
same,IC50,[5]; [10],18.2 ± 13.3 nM
C=CC(=O)Nc1ccc2c(c1)n(C1CCN(Cc3ccc(-c4nc5cc[nH]c(=O)c5cc4-c4ccccc4)cc3)CC1)c(=O)n2C [Compound 46],Ki,[1],1 to 18.9 nM
same,kinact,[1],0.00202 s⁻¹
same,kinact/KI,[1],190000 ± 25000 M⁻¹ s⁻¹
